“And” between values parts separate entries of the source, which are not always exact repeats. Equal values may be shown once. ± gives the uncertainty stated by the source.
What was measured:
[1] = xn = mol fraction of the nth substance listed

Fc1ccccc1
101 kPa
Conditions	viscosity
303.15 K	0.514 ± 0.011 mPa·s and 0.523 ± 0.019 mPa·s and 0.523 ± 0.011 mPa·s
308.15 K	0.495 ± 0.018 mPa·s and 0.495 ± 0.01 mPa·s
313.15 K	0.46 ± 0.011 mPa·s and 0.467 ± 0.017 mPa·s and 0.467 ± 0.01 mPa·s

O=Cc1ccccc1
viscosity
Conditions	293.15 K	298.1 K	298.15 K	303.15 K	308.15 K	313.15 K	318.15 K	323.15 K
100 kPa	1.495 ± 0.036 mPa·s	–	–	–	–	–	–	–
101 kPa	–	1.37 ± 0.032 mPa·s	1.392 ± 0.033 mPa·s	1.26 ± 0.0099 mPa·s	1.215 ± 0.033 mPa·s	–	0.9051 ± 0.091 mPa·s and 1.051 ± 0.028 mPa·s	0.975 ± 0.026 mPa·s
101.33 kPa	1.397 ± 0.19 mPa·s	–	1.445 ± 0.012 mPa·s and 1.321 ± 0.012 mPa·s and 1.385 ± 0.013 mPa·s	1.278 ± 0.18 mPa·s	1.13 ± 0.014 mPa·s and 1.178 ± 0.011 mPa·s	1.17 ± 0.17 mPa·s	1.034 ± 0.01 mPa·s	1.072 ± 0.17 mPa·s

c1ccsc1
viscosity
Conditions	293.15 K	298.15 K	303.15 K	308.15 K	313.15 K	318.15 K	323.15 K
100 kPa	–	0.655 ± 0.094 mPa·s	–	0.585 ± 0.091 mPa·s	–	0.525 ± 0.088 mPa·s	–
101 kPa	0.653 ± 0.065 mPa·s	0.62 ± 0.01 mPa·s and 0.615 ± 0.062 mPa·s	0.58 ± 0.058 mPa·s	0.54 ± 0.01 mPa·s and 0.545 ± 0.055 mPa·s	0.518 ± 0.052 mPa·s	0.48 ± 0.01 mPa·s and 0.491 ± 0.049 mPa·s	0.464 ± 0.047 mPa·s

Cc1ccc(C)cc1
Conditions	viscosity
293.15 K, 101 kPa	0.5756 ± 0.0088 mPa·s and 0.6402 ± 0.017 mPa·s and 0.6388 ± 0.0058 mPa·s
293.15 K, 101.2 kPa	0.6517 ± 0.029 mPa·s
293.15 K, 101.3 kPa	0.6332 ± 0.017 mPa·s and 0.6589 ± 0.04 mPa·s
298 K, 101.3 kPa	0.615 ± 0.008 mPa·s
298.15 K, 100 kPa	0.6118 ± 0.073 mPa·s
298.15 K, 101.2 kPa	0.6083 ± 0.027 mPa·s
303.15 K, 101.2 kPa	0.5753 ± 0.026 mPa·s
303.15 K, 101.3 kPa	0.5702 ± 0.0041 mPa·s
303.15 K, 101.32 kPa	0.564 ± 0.015 mPa·s
303.15 K, 101.33 kPa	0.5694 ± 0.015 mPa·s and 0.519 ± 0.008 mPa·s and 0.57 ± 0.004 mPa·s
307.35 K, 101.33 kPa	0.539 ± 0.0095 mPa·s
308.15 K, 100 kPa	0.5508 ± 0.066 mPa·s
308.15 K, 101.2 kPa	0.5364 ± 0.024 mPa·s
308.15 K, 101.3 kPa	0.5381 ± 0.0039 mPa·s
313.15 K, 101.2 kPa	0.5094 ± 0.023 mPa·s
313.15 K, 101.3 kPa	0.5309 ± 0.014 mPa·s and 0.5117 ± 0.031 mPa·s and 0.5086 ± 0.0037 mPa·s
313.15 K, 101.33 kPa	0.5064 ± 0.014 mPa·s
318 K, 101.3 kPa	0.4919 ± 0.019 mPa·s
318.15 K, 101 kPa	0.4925 ± 0.014 mPa·s and 0.462 ± 0.01 mPa·s and 0.483 ± 0.013 mPa·s
318.15 K, 101.2 kPa	0.5049 ± 0.023 mPa·s
318.15 K, 101.3 kPa	0.4817 ± 0.0036 mPa·s
323.15 K, 101.3 kPa	0.4738 ± 0.013 mPa·s and 0.4571 ± 0.028 mPa·s

CC(F)F
101 kPa
Conditions	viscosity [mPa·s]
293.35 K	0.172 ± 0.0047
294.75 K	0.177 ± 0.0049
313.35 K	0.1402 ± 0.0038
314.25 K	0.1409 ± 0.0038

c1ccc(Nc2ccccc2)cc1
Conditions	viscosity [mPa·s]
323.15 K, 101 kPa	5.95 ± 0.35

NCCO.O=CO
viscosity
Conditions	293.15 K	298.15 K	303.15 K	308.15 K	313.15 K	318.15 K	323.15 K
100 kPa	–	79.13 ± 8.1 mPa·s and 79.13 ± 32 mPa·s	63.01 ± 6.4 mPa·s and 63.01 ± 25 mPa·s	51.79 ± 5.2 mPa·s and 51.79 ± 21 mPa·s	43.03 ± 4.4 mPa·s and 43.03 ± 17 mPa·s	36.34 ± 3.7 mPa·s and 36.34 ± 15 mPa·s	30.76 ± 3.1 mPa·s and 30.76 ± 12 mPa·s
101 kPa	268.9 ± 21 mPa·s	198.1 ± 16 mPa·s	149.5 ± 11 mPa·s	115.4 ± 8.3 mPa·s	91 ± 6.2 mPa·s	72.85 ± 4.8 mPa·s	58.64 ± 3.8 mPa·s

OCCOCCO
viscosity
Conditions	293.15 K	298.1 K	298.15 K	308.15 K	313.15 K
101 kPa	38.82 ± 0.25 mPa·s and 38.82 ± 0.42 mPa·s and 38.82 ± 0.19 mPa·s (2×)	27.87 ± 2.3 mPa·s	27.15 ± 1.1 mPa·s and 27.14 ± 1.1 mPa·s	17.26 ± 0.7 mPa·s	14.81 ± 0.6 mPa·s
101.32 kPa	33.6 ± 2.3 mPa·s	–	–	–	12.8 ± 0.88 mPa·s
101.33 kPa	–	–	26.81 ± 0.46 mPa·s	–	–

CCCCCCCCCCCCO
Conditions	viscosity [mPa·s]
303.15 K, 101.33 kPa	12.95 ± 0.12

CC(O)C(C)O (configuration not stated)
viscosity [mPa·s]
Conditions	308.15 K	313.15 K	318.15 K	323.15 K
101 kPa	–	–	–	16.98 ± 1
101.3 kPa	57.11 ± 0.39	39.26 ± 0.38	27.62 ± 0.27	–

CCc1cccc(CC)c1
102 kPa
Conditions	viscosity [mPa·s]
293.15 K	0.852 ± 0.023
303.15 K	0.751 ± 0.022
313.15 K	0.668 ± 0.022
323.15 K	0.598 ± 0.022

COC(=O)OCC(F)(F)F
100 kPa
Conditions	viscosity [mPa·s]
298.15 K	1 ± 0.022
313.15 K	0.74 ± 0.016

CCOC(=O)c1ccccc1C(=O)OCC
Conditions	viscosity [mPa·s]
313.15 K, 101.33 kPa	6.3 ± 0.063

CC(C)CCCC(C)CCCC(C)CCCCC(C)CCCC(C)CCCC(C)C (configuration not stated)
100 kPa
Conditions	viscosity [mPa·s]
293.15 K	35.3 ± 2.2
313.15 K	15.4 ± 0.9

CCCCCCCCCCCCOS(=O)(=O)[O-].CCCCn1cc[n+](C)c1
Conditions	viscosity [mPa·s]
303.15 K, 101 kPa	1.32e+07 ± 4.3e+06

[Br-].[Br-].[Br-].[Br-].[Sn+4]
101 kPa
Conditions	viscosity
313.15 K	1.97 ± 0.07 mPa·s and 2.101 ± 0.055 mPa·s
323.15 K	1.78 ± 0.07 mPa·s

[Cl-].[Cl-].[Cl-].[Cl-].[Ge+4]
101 kPa
Conditions	viscosity [mPa·s]
293.15 K	0.599 ± 0.015
298.15 K	0.589 ± 0.015
303.15 K	0.561 ± 0.014
313.15 K	0.516 ± 0.013

CC(C)CCCC(C)CCCC(C)CCCC(C)C (configuration not stated)
Conditions	viscosity [mPa·s]
298.15 K, 101.33 kPa	5.479 ± 0.066

NCCO.O=CO + CC(C)(N)CO
viscosity [mPa·s], [1], 100 kPa
Conditions	x1 = 0.1475	x1 = 0.2287	x1 = 0.3157	x1 = 0.409	x1 = 0.5093	x1 = 0.6175	x1 = 0.7346
298.15 K	170.6 ± 69	165.1 ± 66	148.3 ± 60	126.5 ± 51	107.4 ± 43	84.75 ± 34	64.21 ± 26
303.15 K	118.8 ± 48	113 ± 45	103.2 ± 41	90.68 ± 36	78.55 ± 31	62.99 ± 25	49.24 ± 20
308.15 K	82.33 ± 33	79.18 ± 32	74.33 ± 30	66.23 ± 27	58.35 ± 23	47.99 ± 19	38.25 ± 15
313.15 K	58.68 ± 23	57.28 ± 23	54.44 ± 22	49.47 ± 20	44.41 ± 18	37.11 ± 15	30.16 ± 12
318.15 K	42.89 ± 17	42.1 ± 17	40.82 ± 16	37.69 ± 15	34.31 ± 14	29.35 ± 12	24.25 ± 9.7
323.15 K	31.84 ± 13	31.65 ± 13	31.24 ± 12	29.32 ± 12	27.04 ± 11	23.55 ± 9.4	19.78 ± 7.9

c1ccc(Nc2ccccc2)cc1 + CCCCCC(=O)O
[1], 323.15 K, 101.33 kPa
Conditions	viscosity [mPa·s]
x1 = 0.2111	2.271 ± 0.028
x1 = 0.3983	2.789 ± 0.035
x1 = 0.5972	3.497 ± 0.043
x1 = 0.7957	4.496 ± 0.055

O=C(O)CCC(=O)O + CO
viscosity [mPa·s], [1], 101 kPa
Conditions	308.15 K	313.15 K	318.15 K	323.15 K
x1 = 0.04258	0.8055 ± 0.021	0.7491 ± 0.02	0.6981 ± 0.018	0.646 ± 0.017
x1 = 0.05573	0.9556 ± 0.025	0.887 ± 0.024	0.8175 ± 0.022	0.7603 ± 0.02

C=C(C)C(=O)OCCCCCCC
101 kPa
Conditions	viscosity [mPa·s]
303 K	1.516 ± 0.029
313 K	1.275 ± 0.021
323 K	1.105 ± 0.015

CC(O)C(C)O (configuration not stated) + C[N+](C)(C)CCO.[Cl-]
viscosity [mPa·s], [1], 101.3 kPa
Conditions	303.15 K	308.15 K	313.15 K	318.15 K	323.15 K
x2 = 0.2	71.79 ± 2.1	53.5 ± 1.4	40.72 ± 1.2	31.73 ± 0.88	25.22 ± 0.78
x2 = 0.25	84.88 ± 2.5	63.93 ± 1.8	48.73 ± 1.3	38.16 ± 1.1	30.43 ± 0.8

CC(C)CCCC(C)CCCC(C)CCCCC(C)CCCC(C)CCCC(C)C (configuration not stated) + CCCCCCCCO
Conditions	viscosity [mPa·s]
[1], 298.15 K, 101 kPa, x2 = 0.5974	13.55 ± 0.07

CC(=O)OCC[N+](C)(C)C.[Cl-] + CC(=O)CCC(=O)O
[1], 101 kPa, x2 = 0.75
Conditions	viscosity [mPa·s]
293.15 K	164.5 ± 7.5
303.15 K	85.88 ± 3.7
313.15 K	46.75 ± 2
323.15 K	31.58 ± 1.3

CCCCCCCCN
viscosity
Conditions	303.15 K	308.15 K	313.15 K
101 kPa	1.169 ± 0.023 mPa·s and 1.169 ± 0.013 mPa·s and 1.165 ± 0.0096 mPa·s	0.9267 ± 0.095 mPa·s and 0.9267 ± 0.012 mPa·s	0.9864 ± 0.0085 mPa·s
101.33 kPa	1.165 ± 0.0096 mPa·s	–	0.9864 ± 0.0085 mPa·s

COC(=O)OCC(F)(F)F + O=C1OCCO1
[1], 313.15 K, 100 kPa
Conditions	viscosity [mPa·s]
x2 = 0.1011	0.826 ± 0.018
x2 = 0.1994	0.92 ± 0.02
x2 = 0.3006	1.03 ± 0.022
x2 = 0.3997	1.142 ± 0.025
x2 = 0.5004	1.264 ± 0.027
x2 = 0.5989	1.39 ± 0.03
x2 = 0.7023	1.524 ± 0.033
x2 = 0.7988	1.652 ± 0.036
x2 = 0.9	1.786 ± 0.039

O=C(O)C(Cl)Cl
101 kPa
Conditions	viscosity [mPa·s]
308.15 K	4.779 ± 0.2
323.15 K	3.243 ± 0.14

O.O.O.O.O.O=S(=O)([O-])[S-].[Na+].[Na+] + N#C[S-].[Na+]
[1], 101.33 kPa, x2 = 0.3
Conditions	viscosity [mPa·s]
308 K	30.26 ± 0.56
313 K	23.84 ± 0.44
318 K	19.42 ± 0.36
323 K	15.54 ± 0.29

CCCC[N+](CCCC)(CCCC)CCCC.[Cl-] + C[C@@H](O)[C@H](N)C(=O)O
Conditions	viscosity [mPa·s]
[1], 313.15 K, 101 kPa, x1 = 0.9	633 ± 160

O=Cc1ccccc1 + CCCO
Conditions	viscosity [mPa·s]
[1], 308.15 K, 101 kPa, x2 = 0.8022	1.215 ± 0.016

CCCC[N+](CCCC)(CCCC)CCCC.[Cl-] + CSCC[C@H](N)C(=O)O
Conditions	viscosity [mPa·s]
[1], 323.15 K, 101 kPa, x1 = 0.9	529 ± 130

From the CheMixHub viscosity set
